Experimental data taken from patent US11517575B2, “Use of minaprine to reduce tumor growth” (Institut Gustave-Roussy, priority 2019, dated 2022).
Peptide text beside a SMILES is read from it. * marks the point of attachment. Cbz = O=C(OCc1ccccc1)*; CH2F = FC*

Test system: HCT116 cells
Assay: Cell death profiling by quantitative flow imaging of irradiated/non-irradiated co-cultures with death effector inhibitors
Type: cell-based, human
Settings: 4 Gy, 24 h co-culture; for PS exposure on outer plasma membrane of irradiated CMFDA+ cells: Rosco 10 μM; for engulfment of neighboring cells by gamma-irradiated CMFDA+ cells (cell-in-cell structures): Y27632 30 μM
Description: FIG. 2 Detection of γ-irradiation-elicited cell autonomous death modalities by quantitative imaging flow-cytometry. (A-E) Detection and quantification of plasma membrane integrity loss and PS exposure observed after 24 hour co-culture of untreated (red/dark grey) CMTMR-labeled HCT116 cells and untreated (green/light grey) CMFDA-labeled HCT116 cells (A, C-E), of untreated (red/dark grey) CMTMR-labeled HCT116 cells and untreated (green/light grey) CMFDA-labeled HCT116 cells that have been extemporally mixed (C-E) or after 24 hour co-culture of untreated (red/dark grey) […] HCT116 cells with (green/light grey) CMFDA-labeled HCT116 cells (green) that have been irradiated with 4 grays of γ-ionizing radiation (B-E). The co-cultures have been performed in presence or absence of the indicated pharmacological death effector inhibitors. The detection of plasma membrane integrity (with DRAQ7) and PS exposure (with BV786-streptavidin/Annexin V biotin) have been analyzed for the untreated (red/dark grey) CMTMR^+ HCT116 cells, for untreated (green/light grey) CMFDA^+ HCT116 cells, for treated (green/light grey) CMFDA^+ HCT116 cells and for total cell population (CMTMR^+ or CMFDA^+ HCT116 cells). Representative dot plots (A,B) and quantitative data (C-E) are shown (means±SEM, n=3). (F,G) Representative cell cycle distributions of untreated (red/dark grey) CMTMR^+ HCT116 cells, untreated (green/light grey) CMFDA^+ HCT116 cells, treated (green/light grey) CMFDA^+ HCT116 cells and for total cell population (CMTMR^+ or CMFDA^+ HCT116 cells) obtained after 24 hour co-culture of untreated (red/dark grey) CMTMR-labeled HCT116 cells with untreated (green/light grey) CMFDA-labeled HCT116 cells (F, H-J), of untreated (red/dark grey) CMTMR-labeled HCT116 cells and untreated (green/light grey) CMFDA-labeled HCT116 cells that have been extemporally mixed (H-J) or after 24 hour co-culture of untreated (red/dark grey) CMTM-labeled HCT116 cells with (green/light grey) CMFDA-labeled HCT116 cells (green/light grey) that have been irradiated with 4 grays of γ-ionizing radiation (G-J) are shown. Quantitative data of cell cycle analysis are shown in (H-J) (means±SEM, n=3). * or # or $ represents p<0.05, ## or $$ p<0.01, *** or ###p<0.001.
FIG. 3 Detection of γ-irradiation-elicited non-cell autonomous death modalities by quantitative imaging flow-cytometry and confocal fluorescence microscopy. (A-G) Cell-in-cell structures and target cell degradation were determined by quantitative imaging (A-C) and confocal fluorescent microscopy (D-G) after 24 hour co-culture of untreated (red/dark grey) CMTM-labeled HCT116 cells with (green/light grey) CMFDA-labeled HCT116 cells that have been irradiated with 4 grays of γ-ionizing radiation (A), coculture of untreated (red/dark grey) CMTMR-labeled HCT116 cells with untreated (green/light grey) CMFDA-labeled HCT116 cells (B, C) or on CMTMR labeled (red/dark grey) HCT116 cells and untreated (green/light grey) CMFDA-labeled HCT116 cells that have been extemporally mixed (B, C). As previously described, cells have been sequentially labeled after co-cultures with specific fluorescent probes like BV786-streptavidin-Annexin V biotin, DRAQ7, and Hoechst 33342. Then, (red/dark grey) CMTMR-labeled HCT116 cells internalizing (green/light grey) CMFDA-labeled HCT116 cells (noted R(G)), and (green/light grey) CMFDA-labeled HCT116 cells internalizing (red/dark grey) CMTMR-labeled HCT116 cells (noted G(R)) were detected. Representative images are shown in (A) (scale, 20 μm). Frequencies of Cell-in-Cell structures (B) and target cell degradation (C) are reported (means±SEM, n=3). Representative confocal images of cell-in-cell structures (white arrow) (D) and target cell degradation (white dotted arrow) (E) detected during co-culture of untreated (red) CMTMR-labeled HCT116 cells with untreated or γ-irradiated (green) CMFDA-labeled cells are shown (scale bar=10 μm). […]

Row | Compound | PS exposure on outer plasma membrane of irradiated CMFDA+ cells (ZVAD 100 μM) | engulfment of neighboring cells by gamma-irradiated CMFDA+ cells (cell-in-cell structures) (ZVAD 100 μM) | cellular degradation of engulfed CMTMR+ cells (ZVAD 100 μM, YVAD 100 μM) | frequency of dying cells (AnnexinV+DRAQ7- and DRAQ7+) (total, non-irradiated CMTMR+ and irradiated CMFDA+ cells, BafA1 50 nM)
1 | COC(=O)CC(NC(=O)C(C)NC(=O)C(NC(=O)OCc1ccccc1)C(C)C)C(=O)CF (stereo not drawn) [Z-VAD-fmk, Benzyloxycarbonyl-Val-Ala-Asp(OMe)-fluoromethylketone] (Cbz-Val-Ala-Asp(OMe)-CH2F; configuration not given here) | inhibited the exposure of PS | not affected | significantly reduced | 
2 | CO/C1=C\C(C)=C\[C@@H](C)[C@@H](O)[C@@H](C)C/C(C)=C/C=C/[C@H](OC)[C@@H]([C@@H](C)[C@@H](O)[C@H](C)[C@@]2(O)C[C@@H](O)[C@H](C)[C@@H](C(C)C)O2)OC1=O [bafilomycin A1, Bafilomycin A1] |  |  |  | increased the frequency of dying cells
3 | CC[C@H](CO)Nc1nc(NCc2ccccc2)c2ncn(C(C)C)c2n1 [roscovitine, Roscovitine] | inhibited the exposure of PS |  |  | 
4 | C[C@@H](N)[C@H]1CC[C@H](C(=O)Nc2ccncc2)CC1 [Y27632] |  | repressed |  | 
